What all share (assay type): functional
In test [1] the target is T1, Tyrosine-protein kinase receptor TYRO3 (Homo sapiens, UniProt Q06418).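 Note: TYRO3 value obtained as one member of a kinome-wide profiling panel.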
T1 sequence (Q06418 whole entry): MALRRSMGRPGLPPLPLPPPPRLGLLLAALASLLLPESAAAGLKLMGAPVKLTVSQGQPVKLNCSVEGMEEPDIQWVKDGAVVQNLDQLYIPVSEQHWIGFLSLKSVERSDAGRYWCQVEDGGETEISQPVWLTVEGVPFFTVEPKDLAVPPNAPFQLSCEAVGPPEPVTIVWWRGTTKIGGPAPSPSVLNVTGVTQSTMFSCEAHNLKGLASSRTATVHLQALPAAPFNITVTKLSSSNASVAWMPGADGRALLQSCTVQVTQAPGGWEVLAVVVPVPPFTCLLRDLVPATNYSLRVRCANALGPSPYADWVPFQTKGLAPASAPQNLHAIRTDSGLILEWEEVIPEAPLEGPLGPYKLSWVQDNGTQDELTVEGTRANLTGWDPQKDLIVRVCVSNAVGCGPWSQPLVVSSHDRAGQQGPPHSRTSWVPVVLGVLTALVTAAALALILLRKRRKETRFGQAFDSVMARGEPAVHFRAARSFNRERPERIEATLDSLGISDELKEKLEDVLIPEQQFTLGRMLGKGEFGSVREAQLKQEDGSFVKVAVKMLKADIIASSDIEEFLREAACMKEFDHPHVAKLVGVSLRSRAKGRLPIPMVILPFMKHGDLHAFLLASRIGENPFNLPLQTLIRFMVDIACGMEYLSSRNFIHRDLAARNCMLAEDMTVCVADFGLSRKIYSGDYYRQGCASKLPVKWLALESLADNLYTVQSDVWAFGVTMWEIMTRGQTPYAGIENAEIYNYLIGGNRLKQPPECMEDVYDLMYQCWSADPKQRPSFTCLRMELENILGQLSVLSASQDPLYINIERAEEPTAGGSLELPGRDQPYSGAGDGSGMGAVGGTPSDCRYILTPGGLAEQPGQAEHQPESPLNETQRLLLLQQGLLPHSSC

In test [2] the target is Casein kinase I isoform alpha (Homo sapiens, UniProt P48729).
Casein kinase I isoform alpha, sequence (P48729 whole entry, the tested form may be a part, canonical isoform): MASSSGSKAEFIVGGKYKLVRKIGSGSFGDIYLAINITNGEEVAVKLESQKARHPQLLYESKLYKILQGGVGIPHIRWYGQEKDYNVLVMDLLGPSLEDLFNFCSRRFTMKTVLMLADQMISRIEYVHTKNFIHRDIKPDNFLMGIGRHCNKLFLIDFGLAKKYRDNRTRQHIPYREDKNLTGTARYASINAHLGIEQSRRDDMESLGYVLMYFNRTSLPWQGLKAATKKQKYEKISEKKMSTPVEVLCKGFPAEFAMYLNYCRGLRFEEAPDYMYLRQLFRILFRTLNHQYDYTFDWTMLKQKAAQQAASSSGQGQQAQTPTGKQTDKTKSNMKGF
For test [3], the target named is LIM domain kinase 1 (Homo sapiens, UniProt P53667). Description: Navigating the Kinome. Panel member name: LIMK1.
LIM domain kinase 1, sequence (P53667 whole entry, the tested form may be a part): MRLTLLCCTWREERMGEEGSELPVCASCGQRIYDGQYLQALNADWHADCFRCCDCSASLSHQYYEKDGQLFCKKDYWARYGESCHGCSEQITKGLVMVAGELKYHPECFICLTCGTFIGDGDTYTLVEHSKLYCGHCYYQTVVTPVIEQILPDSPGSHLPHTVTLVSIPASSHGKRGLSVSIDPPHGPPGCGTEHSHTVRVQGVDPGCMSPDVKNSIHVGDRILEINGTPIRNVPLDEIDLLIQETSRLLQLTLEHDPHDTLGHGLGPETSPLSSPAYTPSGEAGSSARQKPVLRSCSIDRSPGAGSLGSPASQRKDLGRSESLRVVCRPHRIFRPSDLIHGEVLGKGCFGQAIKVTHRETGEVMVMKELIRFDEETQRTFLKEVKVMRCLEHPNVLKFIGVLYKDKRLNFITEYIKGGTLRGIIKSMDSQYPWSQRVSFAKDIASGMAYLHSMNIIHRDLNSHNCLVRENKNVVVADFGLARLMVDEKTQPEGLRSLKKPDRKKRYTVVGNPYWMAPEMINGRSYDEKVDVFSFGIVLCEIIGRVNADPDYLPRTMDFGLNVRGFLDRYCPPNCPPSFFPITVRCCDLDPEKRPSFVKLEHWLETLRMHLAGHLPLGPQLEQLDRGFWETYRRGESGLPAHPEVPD
The target in test [4] is T2, Serine/threonine-protein kinase Chk1 (Homo sapiens, UniProt O14757).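 Note: measured as one member of a kinome-wide kinase profiling panel.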
T2 sequence (O14757 whole entry): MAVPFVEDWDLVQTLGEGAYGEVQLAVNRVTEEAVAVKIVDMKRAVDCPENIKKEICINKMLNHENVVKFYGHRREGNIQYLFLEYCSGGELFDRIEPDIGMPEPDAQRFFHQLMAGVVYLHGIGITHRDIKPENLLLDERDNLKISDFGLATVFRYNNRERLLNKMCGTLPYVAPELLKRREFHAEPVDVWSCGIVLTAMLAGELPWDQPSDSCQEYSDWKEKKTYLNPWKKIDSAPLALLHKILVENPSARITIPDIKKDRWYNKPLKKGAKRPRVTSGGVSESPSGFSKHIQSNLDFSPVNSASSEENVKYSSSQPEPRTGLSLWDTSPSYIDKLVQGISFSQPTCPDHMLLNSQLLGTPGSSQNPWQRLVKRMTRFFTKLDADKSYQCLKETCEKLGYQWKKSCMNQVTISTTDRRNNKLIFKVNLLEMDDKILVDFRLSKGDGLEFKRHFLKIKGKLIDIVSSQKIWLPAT

The target in test [5] is G protein-coupled receptor kinase 5 (Homo sapiens, UniProt P34947). Description: Navigating the Kinome. Panel member name: GPRK5.
G protein-coupled receptor kinase 5, sequence (P34947 whole entry): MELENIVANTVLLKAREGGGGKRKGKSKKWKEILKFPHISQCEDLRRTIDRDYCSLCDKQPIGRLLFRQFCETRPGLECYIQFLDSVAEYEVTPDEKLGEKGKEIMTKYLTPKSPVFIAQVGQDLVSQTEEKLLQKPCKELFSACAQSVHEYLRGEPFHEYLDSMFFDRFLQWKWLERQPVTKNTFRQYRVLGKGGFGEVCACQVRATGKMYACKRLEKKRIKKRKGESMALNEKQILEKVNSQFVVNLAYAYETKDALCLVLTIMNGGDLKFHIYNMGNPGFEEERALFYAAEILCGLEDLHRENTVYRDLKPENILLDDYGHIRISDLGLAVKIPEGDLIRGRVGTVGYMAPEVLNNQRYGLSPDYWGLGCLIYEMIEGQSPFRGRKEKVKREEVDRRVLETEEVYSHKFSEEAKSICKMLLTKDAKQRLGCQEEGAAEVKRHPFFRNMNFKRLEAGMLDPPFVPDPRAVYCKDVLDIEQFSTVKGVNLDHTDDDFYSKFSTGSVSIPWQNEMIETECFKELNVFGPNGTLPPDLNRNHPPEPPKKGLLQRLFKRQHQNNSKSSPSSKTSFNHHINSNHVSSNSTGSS
The target in test [6] is Dual specificity tyrosine-phosphorylation-regulated kinase 1B (Homo sapiens, UniProt Q9Y463). Put plainly: Navigating the Kinome. Panel member name: DYRK1B.
Dual specificity tyrosine-phosphorylation-regulated kinase 1B, sequence (Q9Y463 whole entry): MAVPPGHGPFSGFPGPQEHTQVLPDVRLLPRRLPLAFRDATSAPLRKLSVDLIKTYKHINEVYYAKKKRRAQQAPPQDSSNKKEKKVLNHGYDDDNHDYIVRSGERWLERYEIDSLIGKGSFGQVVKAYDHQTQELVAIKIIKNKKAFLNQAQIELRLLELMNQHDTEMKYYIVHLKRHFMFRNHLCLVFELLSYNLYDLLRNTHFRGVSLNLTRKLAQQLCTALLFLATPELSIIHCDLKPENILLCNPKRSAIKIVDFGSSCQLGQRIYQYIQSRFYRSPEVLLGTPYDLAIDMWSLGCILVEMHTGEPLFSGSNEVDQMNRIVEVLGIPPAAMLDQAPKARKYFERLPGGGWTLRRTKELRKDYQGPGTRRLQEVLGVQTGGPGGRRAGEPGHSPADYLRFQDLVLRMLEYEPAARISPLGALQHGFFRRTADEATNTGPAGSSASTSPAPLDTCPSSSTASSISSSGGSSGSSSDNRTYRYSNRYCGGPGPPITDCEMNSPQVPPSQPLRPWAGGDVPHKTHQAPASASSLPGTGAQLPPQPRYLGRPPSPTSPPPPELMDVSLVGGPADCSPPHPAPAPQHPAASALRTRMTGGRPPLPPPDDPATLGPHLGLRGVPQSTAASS
The target in test [7] is Leucine-rich repeat serine/threonine-protein kinase 2 (Homo sapiens, UniProt Q5S007).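 Note: value from a broad kinome-wide panel profiling study in which LRRK2 was one of the kinases tested.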
Test [8] deals with Dual specificity protein kinase CLK4 (Homo sapiens, UniProt Q9HAZ1).
Dual specificity protein kinase CLK4, sequence (Q9HAZ1 whole entry): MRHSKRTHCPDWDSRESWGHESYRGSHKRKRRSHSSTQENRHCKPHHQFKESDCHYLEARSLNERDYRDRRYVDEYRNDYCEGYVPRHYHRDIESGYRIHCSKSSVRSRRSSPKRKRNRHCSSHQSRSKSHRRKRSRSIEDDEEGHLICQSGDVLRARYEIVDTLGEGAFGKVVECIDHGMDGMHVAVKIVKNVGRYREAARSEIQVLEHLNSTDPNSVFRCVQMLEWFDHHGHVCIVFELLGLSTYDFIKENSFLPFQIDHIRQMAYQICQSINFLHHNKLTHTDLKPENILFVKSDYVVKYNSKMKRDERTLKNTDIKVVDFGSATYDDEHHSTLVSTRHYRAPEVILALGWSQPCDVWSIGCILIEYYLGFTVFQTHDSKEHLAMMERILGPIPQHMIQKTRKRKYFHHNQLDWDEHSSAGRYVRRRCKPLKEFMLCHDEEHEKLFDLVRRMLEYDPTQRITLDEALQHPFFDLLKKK
In test [9] the target is Leukocyte tyrosine kinase receptor (Homo sapiens, UniProt P29376). Description: Navigating the Kinome. Panel member name: LTK.
Leukocyte tyrosine kinase receptor, sequence (P29376 whole entry): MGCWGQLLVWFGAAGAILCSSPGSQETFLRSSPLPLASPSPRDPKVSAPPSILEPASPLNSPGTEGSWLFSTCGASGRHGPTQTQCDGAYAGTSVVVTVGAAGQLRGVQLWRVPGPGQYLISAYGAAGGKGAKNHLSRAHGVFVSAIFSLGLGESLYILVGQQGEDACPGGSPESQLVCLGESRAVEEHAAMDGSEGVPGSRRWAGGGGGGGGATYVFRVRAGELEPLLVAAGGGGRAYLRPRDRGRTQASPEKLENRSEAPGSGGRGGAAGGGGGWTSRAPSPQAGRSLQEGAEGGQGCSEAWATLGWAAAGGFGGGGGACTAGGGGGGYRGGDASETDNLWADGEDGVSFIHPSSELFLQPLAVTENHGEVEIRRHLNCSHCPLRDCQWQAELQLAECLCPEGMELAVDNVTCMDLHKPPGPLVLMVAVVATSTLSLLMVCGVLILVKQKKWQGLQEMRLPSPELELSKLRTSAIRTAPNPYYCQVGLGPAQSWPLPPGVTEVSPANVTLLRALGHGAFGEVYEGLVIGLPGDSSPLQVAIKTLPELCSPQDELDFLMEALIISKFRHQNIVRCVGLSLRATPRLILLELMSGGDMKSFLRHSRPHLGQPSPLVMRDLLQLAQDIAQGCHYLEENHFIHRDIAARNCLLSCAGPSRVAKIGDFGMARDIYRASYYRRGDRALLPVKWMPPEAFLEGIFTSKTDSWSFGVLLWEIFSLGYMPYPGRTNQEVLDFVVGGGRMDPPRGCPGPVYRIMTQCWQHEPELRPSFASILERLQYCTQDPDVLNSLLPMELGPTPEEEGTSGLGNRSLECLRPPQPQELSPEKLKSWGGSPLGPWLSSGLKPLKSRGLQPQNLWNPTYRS
Test [10] deals with Serine/threonine-protein kinase pim-1 (Homo sapiens, UniProt P11309).
Test [11] deals with Mitogen-activated protein kinase kinase kinase kinase 2 (Homo sapiens, UniProt Q12851).
Mitogen-activated protein kinase kinase kinase kinase 2, sequence (Q12851 whole entry): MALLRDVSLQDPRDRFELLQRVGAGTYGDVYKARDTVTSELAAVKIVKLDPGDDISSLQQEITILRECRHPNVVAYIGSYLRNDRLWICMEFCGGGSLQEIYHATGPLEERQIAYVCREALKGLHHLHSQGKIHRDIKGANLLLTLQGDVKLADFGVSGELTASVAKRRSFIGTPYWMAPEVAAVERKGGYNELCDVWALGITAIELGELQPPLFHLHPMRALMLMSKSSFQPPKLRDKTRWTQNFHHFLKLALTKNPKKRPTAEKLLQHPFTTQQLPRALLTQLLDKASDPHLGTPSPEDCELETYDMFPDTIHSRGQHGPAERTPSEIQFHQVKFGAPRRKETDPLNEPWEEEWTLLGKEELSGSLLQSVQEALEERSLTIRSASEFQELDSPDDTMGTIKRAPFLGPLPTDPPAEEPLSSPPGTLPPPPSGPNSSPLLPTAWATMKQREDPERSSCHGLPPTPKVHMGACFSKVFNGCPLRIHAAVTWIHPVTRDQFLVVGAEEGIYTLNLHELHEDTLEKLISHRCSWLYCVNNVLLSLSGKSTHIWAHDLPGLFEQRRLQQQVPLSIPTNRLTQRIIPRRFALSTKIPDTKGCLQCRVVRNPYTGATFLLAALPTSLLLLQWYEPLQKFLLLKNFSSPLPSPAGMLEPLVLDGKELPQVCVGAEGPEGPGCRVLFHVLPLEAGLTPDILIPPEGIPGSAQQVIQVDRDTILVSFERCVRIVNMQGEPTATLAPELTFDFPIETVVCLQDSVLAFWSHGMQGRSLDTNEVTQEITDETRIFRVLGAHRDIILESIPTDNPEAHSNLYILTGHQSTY
In test [12] the target is Cyclin-dependent kinase 8 (Homo sapiens, UniProt P49336). Description: Navigating the Kinome. Panel member name: CDK8.
Test [13] has as its target Dual specificity mitogen-activated protein kinase kinase 2 (Homo sapiens, UniProt P36507). Put plainly: Navigating the Kinome. Panel member name: MAP2K2.
A short description of test [14]: Counterscreen for IDE inhibitors: Luminescence-based cell-based high throughput dose response assay to identify compounds that are cytotoxic to HEK cells. [Related pubchem assays: 434962 (Primary screen (IDE inhibitors in singlicate)), 449730 (Counterscreen (Cytotoxicity in triplicate)), 435028 (Confirmation (IDE inhibitors in triplicate)) …. Conditions: HEK293. On the technique in general: A counterscreen serves to expose hits that act by an unwanted route or on another target.

Test [15] deals with T3, Insulin-degrading enzyme (Homo sapiens, UniProt P14735).
T3 sequence (P14735 whole entry): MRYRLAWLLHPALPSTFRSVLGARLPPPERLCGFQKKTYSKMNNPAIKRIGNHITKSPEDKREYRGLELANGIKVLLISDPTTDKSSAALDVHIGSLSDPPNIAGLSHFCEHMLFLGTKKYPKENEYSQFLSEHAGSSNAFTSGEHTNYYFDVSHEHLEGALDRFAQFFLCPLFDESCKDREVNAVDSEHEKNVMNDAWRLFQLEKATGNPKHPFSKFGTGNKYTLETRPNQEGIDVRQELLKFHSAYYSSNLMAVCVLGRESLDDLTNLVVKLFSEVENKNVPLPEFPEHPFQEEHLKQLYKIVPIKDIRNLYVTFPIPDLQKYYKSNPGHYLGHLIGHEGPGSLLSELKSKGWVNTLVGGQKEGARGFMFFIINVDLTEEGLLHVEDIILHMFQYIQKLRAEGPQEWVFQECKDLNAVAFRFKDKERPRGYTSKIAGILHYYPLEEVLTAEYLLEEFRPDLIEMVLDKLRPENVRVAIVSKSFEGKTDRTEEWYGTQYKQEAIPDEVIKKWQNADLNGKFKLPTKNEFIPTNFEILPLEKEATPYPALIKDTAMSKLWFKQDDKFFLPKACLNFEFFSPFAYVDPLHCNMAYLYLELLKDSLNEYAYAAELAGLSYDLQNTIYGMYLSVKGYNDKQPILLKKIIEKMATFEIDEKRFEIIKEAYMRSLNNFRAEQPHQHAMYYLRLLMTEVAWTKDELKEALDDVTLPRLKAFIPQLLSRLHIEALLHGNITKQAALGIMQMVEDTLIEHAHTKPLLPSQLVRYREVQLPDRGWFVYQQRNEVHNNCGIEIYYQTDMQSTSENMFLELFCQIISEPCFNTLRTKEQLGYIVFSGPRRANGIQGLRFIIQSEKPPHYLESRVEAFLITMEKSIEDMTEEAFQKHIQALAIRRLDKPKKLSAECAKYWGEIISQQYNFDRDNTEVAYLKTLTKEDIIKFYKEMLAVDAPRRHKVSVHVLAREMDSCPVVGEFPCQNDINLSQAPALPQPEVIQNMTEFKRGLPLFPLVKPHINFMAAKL
Put plainly: Dose Response: Fluorescence polarization-based cell-based high throughput dose response assay for inhibitors of insulin-degrading enzyme (IDE). [Related pubchem assays: 434962 (Primary screen (IDE inhibitors in singlicate)), 449730 (Counterscreen (Cytotoxicity in triplicate)), 435028 (Confirmation (IDE inhibitors in triplicate)), 434984 (Summary ….

Test [16] deals with T4, Multidrug resistance protein CDR2 (Candida albicans (strain SC5314 / ATCC MYA-2876) (Yeast), UniProt P78595).
T4 sequence (P78595 whole entry): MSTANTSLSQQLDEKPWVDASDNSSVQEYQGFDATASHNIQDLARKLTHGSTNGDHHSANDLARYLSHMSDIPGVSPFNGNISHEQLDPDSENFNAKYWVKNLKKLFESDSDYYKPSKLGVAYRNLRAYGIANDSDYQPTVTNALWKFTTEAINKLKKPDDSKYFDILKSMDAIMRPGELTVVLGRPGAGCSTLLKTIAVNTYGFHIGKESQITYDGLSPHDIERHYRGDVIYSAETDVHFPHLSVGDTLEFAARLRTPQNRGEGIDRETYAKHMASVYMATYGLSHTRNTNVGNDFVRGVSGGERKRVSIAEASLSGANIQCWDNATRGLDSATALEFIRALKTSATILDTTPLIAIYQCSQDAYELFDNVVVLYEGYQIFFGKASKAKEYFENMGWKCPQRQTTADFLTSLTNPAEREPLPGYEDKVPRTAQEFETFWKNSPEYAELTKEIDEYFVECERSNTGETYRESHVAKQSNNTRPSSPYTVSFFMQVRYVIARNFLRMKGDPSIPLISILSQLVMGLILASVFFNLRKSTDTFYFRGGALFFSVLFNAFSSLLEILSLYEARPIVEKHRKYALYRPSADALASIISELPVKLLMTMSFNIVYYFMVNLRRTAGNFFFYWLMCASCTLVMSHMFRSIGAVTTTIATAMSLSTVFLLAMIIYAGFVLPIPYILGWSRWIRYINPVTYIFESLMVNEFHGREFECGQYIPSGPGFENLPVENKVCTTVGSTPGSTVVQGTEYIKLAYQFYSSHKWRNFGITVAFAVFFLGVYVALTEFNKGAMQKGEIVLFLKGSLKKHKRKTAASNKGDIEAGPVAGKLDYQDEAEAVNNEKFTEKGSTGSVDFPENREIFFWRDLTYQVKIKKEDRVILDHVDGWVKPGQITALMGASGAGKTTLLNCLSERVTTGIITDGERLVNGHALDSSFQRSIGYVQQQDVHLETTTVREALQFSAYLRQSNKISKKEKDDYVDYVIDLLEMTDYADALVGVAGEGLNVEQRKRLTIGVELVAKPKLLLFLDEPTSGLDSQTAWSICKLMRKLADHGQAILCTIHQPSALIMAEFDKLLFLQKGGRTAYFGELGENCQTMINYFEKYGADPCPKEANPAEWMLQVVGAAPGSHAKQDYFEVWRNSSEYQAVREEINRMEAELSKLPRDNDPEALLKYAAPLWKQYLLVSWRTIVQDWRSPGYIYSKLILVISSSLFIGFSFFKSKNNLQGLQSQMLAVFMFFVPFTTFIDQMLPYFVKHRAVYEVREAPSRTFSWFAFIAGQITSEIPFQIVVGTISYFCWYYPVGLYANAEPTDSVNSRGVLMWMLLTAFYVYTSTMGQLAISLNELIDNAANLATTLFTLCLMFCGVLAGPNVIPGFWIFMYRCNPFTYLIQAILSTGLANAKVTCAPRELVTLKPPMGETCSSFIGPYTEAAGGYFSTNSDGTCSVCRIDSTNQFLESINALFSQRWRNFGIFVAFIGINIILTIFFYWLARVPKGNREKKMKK
Description: CaCDR2 efflux pump inhibitors in yeast, dose response, S. cerevisiae AD1-8u, singleplex, Cherry Pick1 hits (AID 588604).

For test [17], the target named is T5, Small ubiquitin-related modifier 1 (Homo sapiens, UniProt P63165). Put plainly: inhibitors of SUMO1 peptide binding, dose response, biochemical, fluorescence polarization, uHTS hits (AID 624382). Conditions: read-out: IC50_Mean. (In general: In fluorescence polarisation assays a small probe gives low polarisation when free and higher when bound to something large.)
T5 sequence (P63165 whole entry): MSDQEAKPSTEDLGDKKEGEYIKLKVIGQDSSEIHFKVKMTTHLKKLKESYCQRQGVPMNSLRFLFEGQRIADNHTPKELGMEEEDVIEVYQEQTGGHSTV

In test [18] the target is T5, Small ubiquitin-related modifier 1. Description: inhibitors of SUMO1 partner interactions, dose response, biochemical, FRET (AID 624383). Particulars: read-out: IC50_Mean.

Activity calls are given as the source filed them.

Dual specificity mitogen-activated protein kinase kinase 2, sequence (P36507 whole entry): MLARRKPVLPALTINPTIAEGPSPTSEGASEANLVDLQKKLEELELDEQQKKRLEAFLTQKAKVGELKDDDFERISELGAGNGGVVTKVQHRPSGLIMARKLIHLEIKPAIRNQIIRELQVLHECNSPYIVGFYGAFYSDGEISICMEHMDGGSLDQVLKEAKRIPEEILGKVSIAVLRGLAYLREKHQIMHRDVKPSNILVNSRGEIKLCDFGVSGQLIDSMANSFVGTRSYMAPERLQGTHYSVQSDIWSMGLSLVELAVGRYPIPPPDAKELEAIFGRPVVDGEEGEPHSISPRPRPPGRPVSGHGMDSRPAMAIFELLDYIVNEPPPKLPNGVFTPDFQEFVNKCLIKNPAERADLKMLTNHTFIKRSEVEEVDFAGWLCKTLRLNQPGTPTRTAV

One may read the Ki as a measure of affinity in units of concentration, obtained from inhibition or displacement. Regarding `Nc1nnc2cccc(Cl)n12`, the Ki in test [1] is 50.1 µM (active); in test [2], 79.4 µM (active); in test [3] it was 63.1 µM (active); in [4], 63.1 µM (active); in [5] it was 50.1 µM (active); in test [6] it was 63.1 µM (active). Moreover, the Ki in test [7] is 100 µM (active); in [8], 63.1 µM (active); in test [9] it was 100 µM (active).

Take `Nc1cc2c(Oc3ccc(Cl)cc3)cncc2s1`: the inhibitory constant (Ki) in test [10] was 2.51 µM (active); in test [11], 2.51 µM (active); in test [12], 1 µM (active); in test [13], 1.26 µM (active).

The EC50 is the concentration needed to bring the measured effect to its halfway point. Consider `O=C1Nc2ccccc2/C1=C/c1c[nH]c(-c2ccccc2)n1`, for which the IC50 in test [14] is 18.1 µM (not active); in test [15] it was > 55.9 µM (not active); in test [17] it was > 66.6 µM (inactive); in [18], 4.96 µM (active). For the same compound, the 50% effective concentration (EC50) in [16] is 3.89 µM (active).
